Experimental data: publication PMC12567098, “Multi-Kinase Inhibition by New Quinazoline–Isatin Hybrids: Design, Synthesis, Biological Evaluation and Mechanistic Studies” (Pharmaceuticals, 2025)

What was measured:
[1] = system: HeLa; test: MTT cytotoxicity assay, HeLa; format: cell-based; conditions: Homo sapiens, 48 h
Source text: (§1) Doxorubicin and sunitinib were used as positive controls for comparison.
(§2) The MTT assay is widely used to measure cell proliferation, cell viability, and cytotoxicity. It is based on reducing MTT dye into formazan crystals by living cells, determining mitochondrial activity.
(§3) 3.4. Biological Screening
(§4) Four cancer celllines; Hepatocellular carcinoma (HepG2), Breast adenocarcinoma (MCF-7), Breast adenocarcinoma […]
(§5) from American Type Culture Collection (ATCC, USA) via Holding company for biological products and vaccines (VACSERA), Cairo, Egypt. Antibiotic solutions and sterilesolutions were purchased from Sigma-Aldrich.
(§6) 3.4.2. Cytotoxicity Assay […]
(§7) dimethylthiazol-2-yl)-2,5-diphenyltetrazolium bromide) assay.[41–43] MTT assay is widely used to measure cell proliferation, cell viability, and cytotoxicity. It is based on reducing MTT dye into formazan crystals by living cells, determining mitochondrial activity.[44] For the assay, cells were seeded in Dulbecco’s modified minimum essential medium (DMEM) at a density of 1.0× 10^4 cells/well in 96-well plates, supplemented with 10% FBS and 5% CO2 at 37 °C for 24 h. To each well, a test compound was added at different concentrations .Each concentration was examined three times. Then the cells were treated with the compounds at 37 °C under 5 % CO2 for 48 h. Following this, MTT dye was added to each well at a final concentration of 0.5 mg/ml. Cells were treated with this tetrazolium dye for 4 h. Next, […]
(§8) dissolved by adding 100 µl dimethyl sulfoxide (DMSO), and the absorbance in each well was recorded at 570 nm in a […]
(§9) Absorbance at 570nm directly correlates with cell viability. IC50 (μM) values were determined using Graph Pad Prism software version 5 (Graph Pad Software Inc, CA). The cells were also treated with Doxorubicin; a standard anticancer drug used as positive control.

[2] = system: HepG2; test: MTT cytotoxicity assay, HepG2; format: cell-based; conditions: Homo sapiens, 48 h
Procedure: (§10) The synthesized isatin–quinazoline compounds (6a–d) were assessed for their cytotoxicity against four cancer cell lines, namely, hepatocellular carcinoma HepG2, breast carcinoma MCF-7, breast adenocarcinoma MDA-MB-231, and cervical carcinoma HeLa, using an MTT colorimetric assay. Doxorubicin and sunitinib were used as positive controls for comparison. The antiproliferative activities are expressed as the median growth inhibitory concentration (IC50) in micromolar range and are described in Table 1.
as §2, with “Cytotoxicity of the synthesized compounds 6a–d was assessed by performing a colorimetric MTT (3-(4,5-dimethylthiazol-2-yl)-2,5-diphenyltetrazolium bromide) assay. The” for “The”
as §3
(§11) Four cancer celllines; Hepatocellular carcinoma (HepG2), Breast adenocarcinoma (MCF-7), Breast adenocarcinoma (MDA-MB-231), and Cervical carcinoma (HeLa) and normal fibroblast cell line (WI38) used in this study were obtained from American Type Culture Collection (ATCC, USA) via Holding company for biological products and vaccines (VACSERA), Cairo, Egypt. Antibiotic solutions and sterilesolutions were purchased from Sigma-Aldrich.
(§12) 3.4.2. Cytotoxicity Assay
(§13) Cytotoxicity of the synthesized compounds 6a-d was done by performing a colorimetric MTT ( 3-(4,5-dimethylthiazol-2-yl)-2,5-diphenyltetrazolium bromide) assay.[41–43] MTT assay is widely used to measure cell proliferation, cell viability, and cytotoxicity. It is based on reducing MTT dye into formazan crystals by living cells, determining mitochondrial activity.[44] For the assay, cells were seeded in Dulbecco’s modified minimum essential medium (DMEM) at a density of 1.0× 10^4 cells/well in 96-well plates, supplemented with 10% FBS and 5% CO2 at 37 °C for 24 h. To each well, a test compound was added at different concentrations .Each concentration was examined three times. Then the cells were treated with the compounds at 37 °C under 5 % CO2 for 48 h. Following this, MTT dye was added to each well at a final concentration of 0.5 mg/ml. Cells were treated with this tetrazolium dye for 4 h. Next, purple crystals of formazan were noticed in each well, formed as a metabolic product of MTT. These crystals were dissolved by adding 100 µl dimethyl sulfoxide (DMSO), and the absorbance in each well was recorded at 570 nm in a microplate reader (EXL 800, USA). Absorbance at 570nm directly correlates with cell viability. IC50 (μM) values were determined using Graph Pad Prism software version 5 (Graph Pad Software Inc, CA). The cells were also treated with Doxorubicin; a standard anticancer drug used as positive control.

[3] = system: MDA-MB-231; test: MTT cytotoxicity assay, MDA-MB-231; format: cell-based; conditions: Homo sapiens, 48 h
Procedure: as §10
as §2, with “Cytotoxicity of the synthesized compounds 6a–d was assessed by performing a colorimetric MTT (3-(4,5-dimethylthiazol-2-yl)-2,5-diphenyltetrazolium bromide) assay. The” for “The”
as §3, §11, §12, §13

[4] = system: WI38; test: MTT cytotoxicity assay, normal fibroblast WI38; format: cell-based; conditions: Homo sapiens, WI-38, 48 h, normal fibroblast cell line WI38
Source text: as §1, §2, §3, §4, §5, §6, §7, §8, §9

[5] = system: MCF-7; test: MTT cytotoxicity assay, MCF-7; format: cell-based; conditions: Homo sapiens, MCF7, 48 h
Source text: as §1, §2, §3, §4, §5, §6, §7, §8, §9

[6] = target: T1, CDK2 (Homo sapiens, UniProt P24941); test: In vitro CDK2 kinase inhibitory assay (BPS kit, Kinase-Glo); format: biochemical; conditions: 40 min at 30 °C
T1 construct: purchased BPS Biosciences, San Diego, CA, USA

[7] = system: HepG2 cells; test: Propidium iodide flow cytometry cell cycle analysis; format: cell-based; conditions: HepG2, 2.6 μM, 24 h
Procedure: Its impacts on cell cycle progression and induction of apoptosis were investigated. The effect of compound 6c on the regulation of the cell cycle progression was studied using a Propidium Iodide Flow Cytometry Kit assay. Alterations in the cell cycle were recorded after the treatment of HepG2 cells with 2.6 μM of compounds 6c, chosen for its excellent antiproliferative activities within 24 h.
Cell cycle arrest and distribution were evaluated using a Propidium Iodide Flow Cytometry Kit (ab139418, Abcam, Cambridge, MA, USA) followed by flow cytometry analysis.
3.4.3. Flow cytometry cell cycle analysis
Cell cycle arrest and distribution were evaluated using the Propidium Iodide Flow Cytometry Kit (ab139418, Abcam) followed by flow cytometry analysis.[45,46] First, HepG2 cells were cultured at a density of 2 × 10^5/well for 24 h in the presence of tested newly synthesized compounds 6c (2.6 μM) (control cells were left untreated and both measurements were done in triplicate). Then, the attached cells were supplemented with trypsin, washed with ice-cold PBS, centrifuged, and fixed using ice -cold 70% ethanol. Next, cells were re -suspended and stored at +4 °C for at least 2 h. After that, cells were incubated with 200 μL 1X Propidium Iodide (PI) + RNase Staining Solution for 30 min at 37 °C in the dark. The DNA content in each cell nucleus was determined by Epics XL -MCL™ flow cytometer (Beckman -Coulter, USA). Finally, cell cycle phase distribution was analyzed using Flowing software 2.5.1 (Turku Centre for Biotechnology, University of Turku, Turku, Finland). […]
University of Turku, Turku, Finland).

[8] = target: EGFR (Homo sapiens, UniProt P00533); test: In vitro EGFR kinase inhibitory assay (BPS kit, Kinase-Glo)
Procedure: (§20) In vitro CDK2, EGFR, VEGFR -2, and HER2 Inhibitory Assays
(§21) using CDK2, EGFR, VEGFR -2, and HER2 Kinase Assay Kit (BPS Biosciences, San Diego, CA).[50] At first, CDK2, EGFR,
(§22) initi-ate the catalytic function of the enzymes. Detection reagent (Kinase-Glo® Max reagent) was the added to stop
(§23) the reaction, followed by incubation at room temperature for 15 min. Then the IC50 values were calculated by
(§24) measuring luminescence signal at 450 nm using a plate reader (Tecan Spark® 10M, Männedorf, Switzerland). All
(§25) assays were carried out based on protocol from manufacture. All samples and controls were tested in duplicate.

[9] = system: Caspase-9; test: RT-qPCR gene expression analysis, caspase-9; format: cell-based; conditions: HepG2, RT-qPCR, fold vs untreated = 1
Source text: (§14) One significant anticancer mechanism is apoptosis. Drugs that induce apoptosis cause simultaneous or subsequent activation of death receptor systems, mitochondrial dysfunction, and caspase proteolytic processing. Thus, the cell death pathway may occur in several locations. In this study, the alteration in Bax, Bcl-2, and caspase-3 and 9 gene expression following the stimulation of apoptosis by 6c in HepG2 cells using the RT-qPCR method and staurosporine as a positive control is reported in Table 4.
(§15) 3.4.5. Gene Expression Analysis
(§16) After the RNA extraction,
(§17) reverse transcriptase enzyme.
(§18) The amplification reactions
(§19) The data were analyzed using a […]

[10] = system: Bax; test: RT-qPCR gene expression analysis, Bax; format: cell-based; conditions: HepG2, RT-qPCR, fold vs untreated = 1
Source text: as §14, §15, §16, §17, §18, §19

[11] = target: HER2 (Homo sapiens, UniProt P04626); test: In vitro HER2 kinase inhibitory assay (BPS kit, Kinase-Glo); conditions: read-out: IC50 HER2, 40 min at 30 °C
Procedure: as §20, §21, §22, §23, §24, §25

[12] = target: T2, VEGFR-2 (Homo sapiens, UniProt P35968); test: In vitro VEGFR-2 kinase inhibitory assay (BPS kit, Kinase-Glo); format: biochemical; conditions: 40 min at 30 °C
T2 construct: purchased BPS Biosciences, San Diego, CA, USA

[13] = system: Caspase-3; test: RT-qPCR gene expression analysis, caspase-3; format: cell-based; conditions: HepG2, RT-qPCR, fold vs untreated = 1
Source text: as §14, §15, §16, §17, §18, §19

[14] = system: Bcl-2; test: RT-qPCR gene expression analysis, Bcl-2; format: cell-based; conditions: HepG2, RT-qPCR, fold vs untreated = 1
Source text: as §14, §15, §16, §17, §18, §19

[15] = system: HepG2 cells; test: Annexin V-FITC/PI dual-staining apoptosis assay; format: cell-based; conditions: HepG2, 2.6 μM (IC50), 24 h
Procedure: Apoptosis can be detected by measuring translocated phosphatidylserine (PS) from the interior to the surface of the cell membrane. Therefore, an annexin V-FITC/PI (fluorescein–isothiocyanate/propidium iodide) dual staining flow cytometric assay was carried out for compound 6c to investigate the mechanism of cell death induced by the assessed compound.
The apoptosis assay was performed with an annexin V-FITC/PI double staining apoptosis detection kit (K101, BioVision Inc., Mountain View, CA, USA) using a flow cytometer. Experimental procedures are described in detail in theSupplementary Information. […]
3.4.4. Annexin V-FITC Dual-Staining Apoptosis Assay
Apoptosis assay was performed with an Annexin V-FITC / PI double staining apoptosis detection kit (K101, BioVision Inc, Mountain View, CA, USA) using a flow cytometer.[47,48] […]
concentration (2.6 μM) for 24 h. After treatment, the cells were collected, washed two times with PBS, and resuspended in 500 µL binding buffer. Next, annexin V-FITC (5 µL ) and propidium iodide (PI) 5 µL were intruduced to the suspension and the cells were left in the dark for 15 min at room temperature. Samples were then recorded by Epics XL-MCL™ flow cytometer (Beckman- Coulter, USA) and Flowing software (Turku Centre for Biotechnology, University of Turku, Turku, Finland).

EGFR, sequence (P00533 25-1210): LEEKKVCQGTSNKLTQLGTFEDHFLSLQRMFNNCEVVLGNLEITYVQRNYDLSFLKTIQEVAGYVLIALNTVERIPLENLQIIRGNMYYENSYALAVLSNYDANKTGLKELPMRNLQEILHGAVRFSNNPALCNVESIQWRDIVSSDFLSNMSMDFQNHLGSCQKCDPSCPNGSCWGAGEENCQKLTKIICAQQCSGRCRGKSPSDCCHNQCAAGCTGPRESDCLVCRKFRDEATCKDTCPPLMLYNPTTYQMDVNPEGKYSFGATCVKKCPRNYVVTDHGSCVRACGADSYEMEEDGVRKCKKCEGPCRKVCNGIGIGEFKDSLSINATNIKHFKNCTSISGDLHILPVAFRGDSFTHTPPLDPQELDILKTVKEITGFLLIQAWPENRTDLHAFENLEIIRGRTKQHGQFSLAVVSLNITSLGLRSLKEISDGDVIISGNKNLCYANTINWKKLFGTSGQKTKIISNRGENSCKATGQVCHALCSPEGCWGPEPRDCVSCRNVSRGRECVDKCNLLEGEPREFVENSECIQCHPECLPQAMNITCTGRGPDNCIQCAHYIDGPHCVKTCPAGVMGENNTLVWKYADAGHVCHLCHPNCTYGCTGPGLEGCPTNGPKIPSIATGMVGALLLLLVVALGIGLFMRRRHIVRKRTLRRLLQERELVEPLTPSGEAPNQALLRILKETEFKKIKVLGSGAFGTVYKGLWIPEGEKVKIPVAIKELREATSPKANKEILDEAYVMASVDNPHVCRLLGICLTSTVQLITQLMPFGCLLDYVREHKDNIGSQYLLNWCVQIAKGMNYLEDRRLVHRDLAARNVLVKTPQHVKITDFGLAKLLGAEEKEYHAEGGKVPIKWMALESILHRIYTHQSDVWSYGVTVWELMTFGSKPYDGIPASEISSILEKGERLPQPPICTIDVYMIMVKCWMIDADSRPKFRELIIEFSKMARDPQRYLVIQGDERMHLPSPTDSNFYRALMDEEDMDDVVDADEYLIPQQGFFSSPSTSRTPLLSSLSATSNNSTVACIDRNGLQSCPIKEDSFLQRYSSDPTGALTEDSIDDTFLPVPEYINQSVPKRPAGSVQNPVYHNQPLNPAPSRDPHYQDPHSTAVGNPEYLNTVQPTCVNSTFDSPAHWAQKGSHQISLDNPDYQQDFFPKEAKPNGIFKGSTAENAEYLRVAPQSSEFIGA
T2 sequence (P35968 20-1356): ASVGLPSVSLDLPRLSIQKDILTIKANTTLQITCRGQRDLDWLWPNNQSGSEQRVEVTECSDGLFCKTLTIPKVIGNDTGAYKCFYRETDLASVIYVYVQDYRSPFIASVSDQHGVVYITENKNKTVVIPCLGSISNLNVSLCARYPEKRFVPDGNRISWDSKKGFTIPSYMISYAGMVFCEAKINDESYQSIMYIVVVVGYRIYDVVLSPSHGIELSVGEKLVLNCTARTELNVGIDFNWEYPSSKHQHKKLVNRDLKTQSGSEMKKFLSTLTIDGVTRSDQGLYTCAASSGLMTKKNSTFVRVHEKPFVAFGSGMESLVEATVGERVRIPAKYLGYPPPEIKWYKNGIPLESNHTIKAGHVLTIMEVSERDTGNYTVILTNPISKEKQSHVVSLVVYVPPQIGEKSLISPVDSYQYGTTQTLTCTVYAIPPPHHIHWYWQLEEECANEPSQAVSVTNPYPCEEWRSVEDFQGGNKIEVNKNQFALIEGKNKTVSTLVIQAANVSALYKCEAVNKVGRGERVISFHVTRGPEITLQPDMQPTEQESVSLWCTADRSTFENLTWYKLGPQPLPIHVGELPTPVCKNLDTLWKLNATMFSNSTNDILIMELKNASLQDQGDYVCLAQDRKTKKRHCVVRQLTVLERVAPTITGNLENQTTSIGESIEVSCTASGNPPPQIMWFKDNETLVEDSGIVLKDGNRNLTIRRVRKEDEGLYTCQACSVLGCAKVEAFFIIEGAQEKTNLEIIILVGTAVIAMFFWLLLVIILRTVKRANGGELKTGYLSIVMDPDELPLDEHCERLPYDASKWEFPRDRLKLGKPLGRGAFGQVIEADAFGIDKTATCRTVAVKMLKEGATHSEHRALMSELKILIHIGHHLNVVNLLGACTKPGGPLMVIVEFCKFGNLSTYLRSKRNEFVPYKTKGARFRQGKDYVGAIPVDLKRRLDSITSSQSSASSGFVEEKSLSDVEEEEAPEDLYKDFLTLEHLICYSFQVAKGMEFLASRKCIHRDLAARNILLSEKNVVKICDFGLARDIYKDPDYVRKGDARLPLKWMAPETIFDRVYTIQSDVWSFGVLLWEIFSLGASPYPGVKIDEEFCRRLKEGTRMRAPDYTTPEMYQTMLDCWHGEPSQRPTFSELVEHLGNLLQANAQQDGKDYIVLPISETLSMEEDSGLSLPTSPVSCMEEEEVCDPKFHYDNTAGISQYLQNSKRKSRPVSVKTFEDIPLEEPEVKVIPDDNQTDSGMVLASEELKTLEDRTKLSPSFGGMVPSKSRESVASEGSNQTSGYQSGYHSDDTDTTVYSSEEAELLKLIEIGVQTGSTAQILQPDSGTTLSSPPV
HER2, sequence (P04626 23-1255): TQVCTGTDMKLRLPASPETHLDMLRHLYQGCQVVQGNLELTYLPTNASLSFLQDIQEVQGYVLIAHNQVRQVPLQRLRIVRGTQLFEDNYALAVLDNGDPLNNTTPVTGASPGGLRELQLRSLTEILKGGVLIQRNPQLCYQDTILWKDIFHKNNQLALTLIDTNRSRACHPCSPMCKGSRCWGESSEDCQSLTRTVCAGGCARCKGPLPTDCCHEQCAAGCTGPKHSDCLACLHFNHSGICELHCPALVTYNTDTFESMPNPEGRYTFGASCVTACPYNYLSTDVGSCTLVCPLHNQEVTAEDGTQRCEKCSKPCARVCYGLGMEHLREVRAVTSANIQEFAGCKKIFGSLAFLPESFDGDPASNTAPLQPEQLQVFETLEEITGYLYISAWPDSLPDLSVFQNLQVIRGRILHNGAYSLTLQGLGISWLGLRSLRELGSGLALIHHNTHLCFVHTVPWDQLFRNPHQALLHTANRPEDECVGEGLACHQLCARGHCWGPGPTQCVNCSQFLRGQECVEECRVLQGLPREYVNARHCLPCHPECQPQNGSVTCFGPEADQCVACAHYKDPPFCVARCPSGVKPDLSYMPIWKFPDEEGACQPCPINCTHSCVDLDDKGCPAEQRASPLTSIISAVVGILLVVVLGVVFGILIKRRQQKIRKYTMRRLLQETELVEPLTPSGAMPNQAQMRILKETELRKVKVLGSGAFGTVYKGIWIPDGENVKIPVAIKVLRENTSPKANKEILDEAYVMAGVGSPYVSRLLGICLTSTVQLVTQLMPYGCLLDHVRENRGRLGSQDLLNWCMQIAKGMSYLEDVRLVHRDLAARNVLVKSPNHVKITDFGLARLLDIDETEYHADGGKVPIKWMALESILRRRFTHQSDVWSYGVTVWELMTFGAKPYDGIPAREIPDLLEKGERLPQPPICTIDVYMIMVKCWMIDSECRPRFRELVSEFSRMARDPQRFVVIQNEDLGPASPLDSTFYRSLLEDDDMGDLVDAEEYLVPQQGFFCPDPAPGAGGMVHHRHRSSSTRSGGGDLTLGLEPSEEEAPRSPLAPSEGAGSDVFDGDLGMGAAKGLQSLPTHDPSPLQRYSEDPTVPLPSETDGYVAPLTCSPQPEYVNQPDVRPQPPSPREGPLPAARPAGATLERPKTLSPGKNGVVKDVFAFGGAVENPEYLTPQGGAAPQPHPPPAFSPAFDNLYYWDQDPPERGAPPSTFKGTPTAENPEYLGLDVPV

| SMILES | IC50 [1] | IC50 [2] | IC50 [3] | IC50 [4] | IC50 [5] | other results |
| --- | --- | --- | --- | --- | --- | --- |
| O=C1Nc2ccccc2/C1=N/NC(=O)c1ccc(Nc2ncnc3ccccc23)cc1 [Compound 6a, (Z)-N′-(2-Oxoindolin-3-ylidene)-4-(quinazolin-4-ylamino) benzohydrazide] | 13.1 ± 0.9 µM | 7.98 ± 0.6 µM | 6.24 ± 0.5 µM | 34.1 ± 2.6 µM | 4.89 ± 0.3 µM |  |
| O=C1Nc2ccc(Cl)cc2/C1=N/NC(=O)c1ccc(Nc2ncnc3ccccc23)cc1 [Compound 6b, (Z)-N′-(5-Chloro-2-oxoindolin-3-ylidene)-4-(quinazolin-4-ylamino)benzohydrazide] | 66.8 ± 3.4 µM | 61.4 ± 3.5 µM | 56.3 ± 3.2 µM | > 100 µM | 70.7 ± 3.4 µM |  |
| O=C1Nc2ccc(F)cc2/C1=N/NC(=O)c1ccc(Nc2ncnc3ccccc23)cc1 [Compound 6c, (Z)-N′-(5-Fluoro-2-oxoindolin-3-ylidene)-4-(quinazolin-4-ylamino)benzohydrazide] | 7.6 ± 0.5 µM | 2.61 ± 0.1 µM | 5.18 ± 0.4 µM | 57.3 ± 3.3 µM | 3.78 ± 0.2 µM | IC50 [6]: 0.183 ± 0.01 µM; Cell Cycle Distribution (%) % Sub-G1 [7]: 42.79%; Cell Cycle Distribution (%) %G0–G1 [7]: 36.47%; Cell Cycle Distribution (%) %G2/M [7]: 9.92%; Cell Cycle Distribution (%) %S [7]: 53.61%; IC50 [8]: 0.083 ± 0.005 µM; Protein Expression (Normalized to β-Actin) Caspase-9 [9]: 2.795; Protein Expression (Normalized to β-Actin) Bax [10]: 4.585; IC50 [11]: 0.138 ± 0.07 µM; IC50 [12]: 0.076 ± 0.004 µM; Protein Expression (Normalized to β-Actin) Caspase-3 [13]: 10.13; Protein Expression (Normalized to β-Actin) Bcl-2 [14]: 0.185; Necrosis [15]: 2.94; Apoptosis Induction Analysis Early ([15]; in % (unit assumed)): 28.64; Apoptosis Induction Analysis Late ([15]; in % (unit assumed)): 11.21; Apoptosis Induction Analysis Total ([15]; in % (unit assumed)): 42.79 |
| Cc1ccc2c(c1)/C(=N/NC(=O)c1ccc(Nc3ncnc4ccccc34)cc1)C(=O)N2 [Compound 6d, (Z)-N′-(5-Methyl-2-oxoindolin-3-ylidene)-4-(quinazolin-4-ylamino)benzohydrazide] | > 100 µM | 87.4 ± 4.5 µM | 82.7 ± 4.3 µM | 65.8 ± 3.8 µM | > 100 µM |  |
| COc1cccc2c1C(=O)c1c(O)c3c(c(O)c1C2=O)C[C@@](O)(C(=O)CO)C[C@@H]3O[C@H]1C[C@H](N)[C@H](O)[C@H](C)O1 [Doxorubicin, reference compound] |  | 4.5 ± 0.2 µM |  |  |  |  |
| CN[C@@H]1C[C@H]2O[C@@](C)([C@@H]1OC)n1c3ccccc3c3c4c(c5c6ccccc6n2c5c31)C(=O)NC4 [Staurosporine, reference compound] |  |  |  |  |  | Protein Expression (Normalized to β-Actin) Caspase-9 [9]: 4.614; Protein Expression (Normalized to β-Actin) Bax [10]: 6.794; Protein Expression (Normalized to β-Actin) Caspase-3 [13]: 8.43; Protein Expression (Normalized to β-Actin) Bcl-2 [14]: 0.351 |
| CCN(CC)CCNC(=O)c1c(C)[nH]c(/C=C2\C(=O)Nc3ccc(F)cc32)c1C [Sunitinib, reference compound] | 7.48 ± 0.6 µM | 6.82 ± 0.5 µM | 8.41 ± 0.7 µM | 43 ± 2.9 µM | 5.19 ± 0.4 µM |  |
